Entries after “also recorded” stand apart in the source; their conditions may differ. Where a SMILES comes first, the peptide text is derived from it. The star is where a group is joined. Cbz = O=C(OCc1ccccc1)*; Bz = O=C(c1ccccc1)*
What was measured:
[1] = system: Staphylococcus aureus strain 8325-4/pMP25; experiment: Growth in presence of test compounds in the Agr screen; settings: compared to untreated Agr+ cells; screen at 10 μg/ml final, 6 hours, 35° C.
Agr P3 promoter = experiment: Agr P3-β-lactamase fusion screen: β-lactamase activity; settings: for Status from algorithm: Table 3; for β-Lactamase inhibition: corrected for cell density, screen at 10 μg/ml final, 6 hours, 35° C., negative = induction; for Behaviour in the P3-β-lactamase screen (in words): text
[2] = system: B. subtilis strain 168 sporulation; experiment: Sporulation; assay type: cell-based, Bacillus subtilis; settings: B. subtilis strain 168, compared to untreated controls
Text: Sporulation: Sporulation is a well-characterized event in many organisms, including Bacillus subtilis (spoIIJ/spo0A or spoIIJ/spo0F, Losick et al., Annu. Rev. Genet. 20:625-669 (1986); Smith, The initiation of sporulation,pp. 185-210, In I. Smith et al. eds., Regulation of procaryotic development, American Society for Microbiology, Washington, D.C. (1989)). It can be induced in various media (Leighton and Doi, J. Biol. Chem. 246:3189-3195 (1971); Piggot and Curtis, J. Bacteriol. 169:1260-1266 (1987)), and can be easily assayed (Nicholson and Setlow, Sporulation, germination, and outgrowth, pp. 391-429, In C. R. Harwood and S. M. Cutting eds., Molecular biological methods for Bacillus, John Wiley and Sons, Ltd., Chichester, West Sussex, England (1990)). Briefly, by heating the cells to 80-85° C. for 15-20 min, undifferentiated cells are killed while spores survive. Therefore, by determining the difference in viable cell count of control cultures versus heat treated cultures, it is possible to calculate the percent sporulation for a given culture or condition. Compounds that inhibit the signal transduction system responsible for the induction of sporulation will lower the viable cell count of the heat treated culture.

RNAIII [3] = experiment: RNAIII Northern Blot
protein A = experiment: Protein A expression immunoblot; assay type: cell-based, Staphylococcus aureus; settings: Table 4; relative to Agr- mutant cells
Procedure: FIG. 18. Immunodetection of staphylococcal protein A in treated and untreated cultures. Cells were grown in presence of compounds 1, 2, or 3 to a similar density (O.D. 600 nm--0.5-0.6). Cells were lysed using lysostaphin prior to separation of cell surface proteins by SDS-PAGE. After electrophoretic transfer of proteins from the gel onto a nitrocellulose membrane, detection of protein A on the blot was possible by using a specific anti-protein A antibody and a second antibody that allowed chemiluminescent detection of immune complexes. The chemiluminescence was captured by autoradiography.
Protein A. Protein A expression is assayed by immunoblots of SDS-Page separated total cell proteins (Patel et al., Infection and Immunity 55:3103-3110 (1987)).

RNAIII [4] = experiment: RNAIII Northern Blot in clinical strains; assay type: cell-based, Staphylococcus aureus; settings: several clinical strains of S. aureus (no. 212, 213, 215, and 217), FIG. 20
Text: FIG. 20. Northern Blots for RNAIII detection in several clinical strains of S. aureus (no. 212, 213, 215, and 217) grown in the presence of Compound 10. Untreated strain 8325-4 (Agr+) is also represented and acts as a control to show the maximal amounts of RNAIII also detected in all clinical strains grown without the test compound.

[5] = system: S. typhimurium chemotaxis; experiment: Chemotaxis (swarm agar plates); assay type: cell-based, Salmonella typhimurium; settings: S. typhimurium on ribose-containing swarm agar plates
Text: Chemotaxis: Motility has been studied in a variety of bacteria. The molecular mechanisms of motility have been best characterized in E. coli and S. typhimurium but analogs of the molecular components have been detected in both Gram-negative and Gram-positive organisms (Morgan et al., J. Bacteriol. 175:133-140 (1993)). A two-component regulatory system composed of either cheA/cheY or cheA/cheB (Stewart and Dahlquist, Chem. Rev. 87:997-1025 (1987); MacNab, Motility and Chemotaxis, pp. 732-759, In F. C. Neidhardt, et al., ed., Escherichia coli and Salmonella typhimurium: cellular and molecular biology, American Society for Microbiology, Washington, D.C. (1987)), is central to the ability of these organisms to detect and respond appropriately to chemical substances. Such response can be detected on minimal swarm agar plates containing a chemoattractant (sugars or amino acids) (J. S. Parkinson, J. Bacteriol. 126:758-770 (1976)), or a capillary assay system, in which chemoattractant is placed in a capillary tube and immersed in a liquid bacterial culture. Bacteria capable of chemotaxis will swim into the capillary and can be detected by performing viable cell counts (Adler, J. Gen. Microbiol. 74:77-91 (1973)). […]

alpha-hemolysin = assay type: cell-based, Staphylococcus aureus
Staphylococcus aureus = experiment: Mucin-enhanced murine peritonitis model; assay type: in vivo, mice (Balb/c); settings: challenge dose of 10^10 cfu; 3.15 mg/kg

For `C=C(C)C=CCC1C(C)(O)CCC2C(C)(C)CCCC21C` (stereo not shown) [Compound 1], the Growth [1] was 105%, the Status from algorithm (Agr P3 promoter) was “Active” and the β-Lactamase inhibition (Agr P3 promoter) was 75%.

With `CC(=O)OC1CCC2(C)C(CC(=O)C3(C)C2CCC2(C)C(c4ccoc4)OC(=O)C4OC423)C1(C)C` (stereo not shown) [Compound 2] the Growth [1] was 122%, the Status from algorithm (Agr P3 promoter) was “Active” and the β-Lactamase inhibition (Agr P3 promoter) was 84%.

`CC(=O)OC1CC2C(C)(C)CCCC2(C)C2CCC3(C)C(=CC(=O)OC3c3ccoc3)C12C` (stereo not shown) [Compound 3] was tested, and the Growth [1] was 70%, the Status from algorithm (Agr P3 promoter) was “GR and Active” and the β-Lactamase inhibition (Agr P3 promoter) was 83%. The “decrease in percent sporulation” value [2] was “more than 50%”.

In the case of `CC(=O)OC1CCC2(C)C(CCC3C4CC5OC6(CCC(C)CO6)C(C)C5C(C)=C4CC32)C1` (stereo not shown) [Compound 6], the “RNAIII production (in words)” value (RNAIII [3]; FIGS. 14 and 15) is reported as “allowed overexpression of RNAIII”, the “RNAIII production (in words)” value (RNAIII [3]; FIGS. 14 and 15, listed as compound 6) is reported as “marked increase in RNAIII” and the Growth [1] is reported as 72%. The Status from algorithm (Agr P3 promoter) was “GR and Inducer”, the β-Lactamase inhibition (Agr P3 promoter) was -111% and the “Behaviour in the P3-β-lactamase screen (in words)” value (from here on “Behaviour”) (Agr P3 promoter) was “enhance the production of β-lactamase; also recorded: showed inducer rather than inhibitor activity”. The “Behaviour” value (Agr P3 promoter; listed as compound 6) was “increased activity of the β-lactamase reporter” and the “Protein A expression” value (protein A) was “[+]”.

In the case of `CC(C)CC(NC(=O)OCc1ccccc1)C(=O)NC(Cc1ccc(O)cc1)C(N)=O` (stereo not drawn) [Compound 7] (Cbz-Leu-Tyr-NH2; configuration not given here), the Growth [1] is reported as 103%, the Status from algorithm (Agr P3 promoter) is reported as “Active” and the β-Lactamase inhibition (Agr P3 promoter) is reported as 87%.

For `CC(C)CC(NC(=O)c1ccccc1)C(=O)NC(Cc1ccc(O)cc1)C(N)=O` (stereo not drawn) [Compound 8] (Bz-Leu-Tyr-NH2; configuration not given here), the Growth [1] was 101%, the Status from algorithm (Agr P3 promoter) was “Active” and the β-Lactamase inhibition (Agr P3 promoter) was 84%.

In the case of `CCCc1c(C(=O)Nc2cccc(C(F)(F)F)c2)cnn1-c1ccccc1` [Compound 9], the Growth [1] is reported as 91%, the Status from algorithm (Agr P3 promoter) is reported as “Active” and the β-Lactamase inhibition (Agr P3 promoter) is reported as 86%.

With `O=C(Nc1ccccc1)OC(Cc1ccccc1)C(F)(F)F` (stereo not shown) [Compound 10] the Growth [1] was 107%, the Status from algorithm (Agr P3 promoter) was “Active” and the β-Lactamase inhibition (Agr P3 promoter) was 84%. For the same compound, the “RNAIII expression in clinical strains (in words)” value (RNAIII [4]) was “greatly reduced”.

For `CC(CS)=NOC(=O)c1c(-c2ccccc2)noc1C` [Compound 11], the Growth [1] was 104%, the Status from algorithm (Agr P3 promoter) was “Active” and the β-Lactamase inhibition (Agr P3 promoter) was 77%. The “chemotaxis effect (in words)” value [5] was “deregulated chemotaxis and enhanced swarm diameters of S. typhimurium; also recorded: not a chemi-attractant or -repellant itself”.

`Cc1cc(C(F)(F)F)cc(N(C)NC2OC(=O)c3ccccc32)n1` (stereo not shown) [Compound 12] was tested, and the Growth [1] was 124%, the Status from algorithm (Agr P3 promoter) was “Active” and the β-Lactamase inhibition (Agr P3 promoter) was 76%.

For `Cc1ccc(NN=C(C#N)C(=O)c2cc(C)nn2C(C)(C)C)cc1` [Compound 13], the Growth [1] was 111%, the Status from algorithm (Agr P3 promoter) was “Active” and the β-Lactamase inhibition (Agr P3 promoter) was 75%.

For `O=S(=O)(Nc1cc(C(F)(F)F)cc(C(F)(F)F)c1)c1cccc2nsnc12` [Compound 14], the Growth [1] was 94%, the Status from algorithm (Agr P3 promoter) was “Active” and the β-Lactamase inhibition (Agr P3 promoter) was 77%. The “decrease in percent sporulation” value [2] was “more than 50%”.

For `C=C1C(=O)OC2CC1C(OC(C)=O)CC(C)=CCCC(C)=CCCC2(C)O` (stereo not shown) [Compound 15], the Growth [1] was 101%, the Status from algorithm (Agr P3 promoter) was “Active” and the β-Lactamase inhibition (Agr P3 promoter) was 76%.

For `O=C(O)/C=C/c1ccc(Sc2ccc(Br)cc2)c([N+](=O)[O-])c1` [Compound 16], the Growth [1] was 106%, the Status from algorithm (Agr P3 promoter) was “Active” and the β-Lactamase inhibition (Agr P3 promoter) was 78%.

For `CN(C)/C=C/C(=O)c1sc(SCc2ccc(Cl)cc2)c2c1CC(C)(C)CC2=O` [Compound 17], the Growth [1] was 87%, the Status from algorithm (Agr P3 promoter) was “Active” and the β-Lactamase inhibition (Agr P3 promoter) was 83%.

With `O=C1OC(c2cccnc2Sc2ccc(Cl)cc2)=NC1=Cc1ccc(C(F)(F)F)cc1` [Compound 18] the Growth [1] was 89%, the Status from algorithm (Agr P3 promoter) was “Active” and the β-Lactamase inhibition (Agr P3 promoter) was 75%.

`CCCCCCCCCCCC(=O)OCC(O)CO` (stereo not shown) [GML, Glycerol monolaureate, reference compound] was tested, and the “RNAIII production (in words)” value (RNAIII [3]; FIGS. 14 and 15) was “showed no effect on RNAIII; also recorded: has no effect on RNAIII production” and the “Behaviour” value (Agr P3 promoter) was “did not qualify as a hit in the screen”.

`O=C(O)c1cn(C2CC2)c2cc(N3CCNCC3)c(F)cc2c1=O` [ciprofloxacin, reference compound] was tested, and the “Behaviour” value (Agr P3 promoter) was “do not behave as hits” and the “alpha-hemolysin activity (in words)” value (alpha-hemolysin) was “did not inhibit alpha-hemolysin activity”.

With `CN[C@H](CC(C)C)C(=O)N[C@H]1C(=O)N[C@@H](CC(N)=O)C(=O)N[C@H]2C(=O)N[C@H]3C(=O)N[C@H](C(=O)N[C@H](C(=O)O)c4cc(O)cc(O)c4-c4cc3ccc4O)[C@H](O)c3ccc(c(Cl)c3)Oc3cc2cc(c3O[C@@H]2O[C@H](CO)[C@@H](O)[C@H](O)[C@H]2O[C@H]2C[C@](C)(N)[C@H](O)[C@H](C)O2)Oc2ccc(cc2Cl)[C@H]1O` [vancomycin] the “Behaviour” value (Agr P3 promoter) was “do not behave as hits”, the “alpha-hemolysin activity (in words)” value (alpha-hemolysin) was “did not inhibit alpha-hemolysin activity” and the “treatment of infection (in words)” value (Staphylococcus aureus) was “treatable”.
